Data reported in patent US20250009780A1, “AGENTS ENCODING CLDN6 AND CD3 BINDING ELEMENTS FOR TREATING CLDN6-POSITIVE CANCERS” (BIONTECH SE, priority 2021, published 2025).
Like-named read-outs stand apart in the source and are kept apart here.

Columns and labels:
[1] = Rat IV PK study of lipid excipient ALC-0159; type: in vivo, Wistar Han rats; settings: for half-life: Wistar Han, rat, plasma, iv, 1.96 mg ALC-0159/kg, 1.96 mg ALC-0159/kg single IV
Description: BNT142 contains the PEG lipid excipient ALC-0159 in the nanoparticle. […] ALC-0159 was then cleared from plasma with a terminal elimination ty, of 72.7 h. The estimated percent of lipid dose distributed to the liver was ˜20%.

[2] = Metabolism of ALC-0159 in vitro and ex vivo; type: in vitro ADME, mouse, rat, monkey and human; settings: yields N,N-ditetradecylamine; across species
Description: The metabolism of ALC-0159, was examined in vitro using blood, liver S9 fractions and hepatocytes, all from mouse, rat, monkey and human and ex vivo in the rat plasma, urine, feces, and liver from the PK study. […] This hydrolytic metabolism was observed across the species evaluated.

[3] = In vitro metabolic stability, hepatocytes; type: in vitro ADME, mouse, rat, monkey, and human; settings: 240 min, all species
Description: (§1) The in vitro metabolic stability of ALC-0366 (aminolipid) was evaluated in mouse, rat, monkey, and human liver microsomes, S9 fractions, and hepatocytes. ALC-0366 was stable over 120 min in liver microsomes (remaining ALC-0366 >89%) and S9 fractions (remaining ALC-0366 >88%) and over 240 min in hepatocytes (remaining ALC-0366 >94%) in all species and test systems.

[4] = In vitro metabolic stability, liver microsomes; type: in vitro ADME, mouse, rat, monkey, and human; settings: 120 min, all species
Description: as §1

[5] = In vitro metabolic stability, S9 fractions; type: in vitro ADME, mouse, rat, monkey, and human; settings: 120 min, all species
Description: as §1

[6] = tested on: human PBMCs; assay: In vitro human cytokine release (multiplex ELISA on T-cell activation assay supernatants); type: cell-based; settings: positive control
Description: Cytokine concentration values for each donor (means of technical triplicates) are shown. Filled symbols represent values with target cells while open symbols represent values without target cells.
Cell culture supernatants obtained from the T-cell activation assay were analyzed to investigate the RiboMab02.1-dependent induction of on- and off-target cytokine release. The levels of human pro-inflammatory cytokines IFN-γ, IL-1β, IL-2, IL-6, IL-10 and TNF-α were measured using a customized multiplex ELISA kit.

[7] = tested on: human PBMCs (T cells); assay: T-cell proliferation assay (CFSE-labeled PBMCs, flow cytometry); type: cell-based; settings: presence as well as absence of target cells
Description: CFSE-labeled human PBMCs from three healthy donors were co-cultured with CLDN6-positive PA-1 and OV-90 target cells or with CLDN6-negative but control TAA-positive NUGC-4 as well as target-negative MDA-MB-231 control cells in a 12-well culture plate format. An effector-to-target-cell ratio of 10:1 was applied. In addition, PBMCs without (−) target cells were included separately. […] OKT3 antibody (anti-human CD3; black bars) served as positive control for target-independent CD3-driven T-cell proliferation. After 72 h of incubation, the percentages of proliferating T cells were analyzed by flow cytometry.
HEK-293T-17 producer cells were transfected with BNT142 or a control RiboMab-encoding RNA. Supernatants containing RiboMab02.1 or the control RiboMab (specific for an irrelevant TAA) were used as test items. Two concentrations (100 or 1 ng/mL) of RiboMab-containing supernatant were added to co-cultures of carboxyfluorescein succinimidyl ester (CFSE)-labeled human PBMCs and target-positive or -negative cells. PA-1 or OV-90 served as CLDN6-positive and MDA-MB-231 as target-negative cells. CLDN6-negative NUGC-4 cells (expressing the irrelevant TAA) as well as PBMCs in the absence of any target cells were included as further specificity controls. PBMCs from three healthy donors were compared in this assay. After 72 h of incubation, T cells were analyzed by flow cytometry to determine target-dependent proliferation.

[8] = tested on: human PBMCs (T cells); assay: T-cell activation assay (CD69/CD25, flow cytometry); type: cell-based; settings: with and without target cells (data not shown)
Description: Human PBMCs from three healthy donors (effector cells) were cultured in the presence and absence of CLDN6-positive PA-1 cells (target cells) at a 10:1 effector-to-target-cell ratio. RiboMab02.1-containing mouse serum was serially-diluted (10-fold, 10-point; range: 4.0×10^−6 to 4,000 ng/mL) prior to use in the assay. After 48 h of co-incubation, cells were stained with anti-CD5, anti-CD69 and anti-CD25 antibodies for flow cytometric analysis of T cells. Shown here is the total T-cell activation normalized to samples incubated with mock serum from Luc_RNA-LNP-treated mice. Percentages of activated T cells are shown for each individual donor (left) and for all three donors as mean (right). Filled symbols represent values with and black, open symbols without target cells.
RiboMab02.1-containing as well as mock serum samples were obtained from mice administered either with BNT142 or luciferase encoding RNA-LNP (Luc_RNA-LNP; mock). Human PBMCs from three healthy donors were used as effector cells. Serum samples were serially-diluted (10-fold, 10-point), starting at 4,000 ng/mL, and added to PBMCs cultured alone or together with CLDN6-positive PA-1 target cells at an effector-to-target-cell ratio of 10:1. After 48 h of incubation, T cells were analyzed by flow cytometry for surface expression of the early and late activation markers CD69 and CD25, respectively. […] OKT3 positive control led to >50% T-cell activation with and without target cells (data not shown). Upregulation of CD69 on T cells was higher than that of CD25; CD25-positive cells were almost exclusively CD69 double-positive, pointing to an early activation state (data not shown).

[9] = target: T1, CLDN6 (Homo sapiens, UniProt P56747); assay: Cell microarray off-target binding assay, CLDN6; settings: fixed HEK293 cells overexpressing target
T1 construct: expressed in transfected cells
T1 sequence (P56747 1-220): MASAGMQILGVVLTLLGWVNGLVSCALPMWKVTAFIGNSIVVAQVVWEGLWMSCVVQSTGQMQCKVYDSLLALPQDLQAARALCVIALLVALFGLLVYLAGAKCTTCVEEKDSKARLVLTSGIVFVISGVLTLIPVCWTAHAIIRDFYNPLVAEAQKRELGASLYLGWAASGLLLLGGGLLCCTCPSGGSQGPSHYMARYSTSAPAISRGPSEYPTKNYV
Description: (§2) The tribody was screened for binding against fixed human HEK293 cells, individually overexpressing 6,239 different full-length human plasma membrane proteins and cell surface-tethered human secreted proteins, including 371 heterodimers.

[10] = tested on: 6,239 full-length human plasma membrane proteins and cell surface-tethered human secreted proteins; assay: Cell microarray off-target binding assay, remaining panel; settings: fixed HEK293 cells
Description: as §2

[11] = target: T2, CLDN9 (Homo sapiens, UniProt O95484); assay: Cell microarray off-target binding assay, CLDN9; set-up: individually overexpressing 6,239 different full-length human plasma membrane proteins; expressed in transfected cells; host or cells: fixed human HEK293 cells; settings: fixed HEK293 cells overexpressing target
T2 sequence (O95484 1-217): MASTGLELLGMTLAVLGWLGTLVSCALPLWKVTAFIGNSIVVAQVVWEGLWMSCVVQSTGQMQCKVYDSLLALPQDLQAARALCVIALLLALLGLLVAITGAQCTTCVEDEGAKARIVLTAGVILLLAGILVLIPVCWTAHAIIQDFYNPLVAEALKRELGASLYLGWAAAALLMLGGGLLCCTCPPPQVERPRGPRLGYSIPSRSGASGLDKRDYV
Description: as §2

[12] = tested on: CLDN6-positive human ovarian carcinoma (OV-90) xenograft; assay: OV-90 xenograft model in PBMC-humanized NSG mice; type: in vivo, mouse
Description: NSG mice bearing advanced SC tumor xenografts of OV-90 cells (mean tumor volume at treatment start=100 mm^3) were engrafted with human PBMCs as effector cells by IP injection. Tumor volume was measured twice per week with a digital caliper. […] (A) Treatment schedule. (B) Tumor volume of individual mice at designated time points. (C) Overview of the median tumor volume per group, each comprising 13 to 14 mice at the start of the study and a minimum of five mice at the last data points. The vertical dotted lines represent the time points of IV administration of test/control items. Four mice (five mice from the 0.1 μg BNT142 group) from all groups were euthanized on Day 38 to obtain samples for ex vivo assays. (D) Number of CD3-positive cells per mm^2 of xenograft tissue as determined by immunohistochemical (IHC) staining using an anti-human CD3 antibody. […] Horizontal lines represent the mean (n=4 to 5). (E) Percentage of CLDN6-positive cells in tumor xenografts of mice from the respective test and control groups as determined by IHC staining using an anti-human CLDN6 antibody. Tumor xenografts were dissected at different time points over the course of the study. Horizontal lines represent the mean (n=8 to 10). […] Reddish-brown staining (dark in the black and white figure) indicates a positive IHC signal while the bluish-purple areas indicate an absence of positive staining (negative IHC signal).
To determine the anti-tumor efficacy of BNT142 in vivo, a CLDN6-positive human ovarian carcinoma (OV-90) xenograft mouse model was used. Briefly, immunodeficient male and female NOD.Cg-Prkd^scid IL2rg^tm1Wjl/SzJ (NSG) mice were subcutaneously (SC) inoculated with human OV-90 ovarian carcinoma cells. Mice with established tumors (mean size ≥30 mm^3) were engrafted intraperitoneally (IP) with human PBMCs from a healthy donor (resulting mouse model annotated as NSG/PBMC). Seven days later, a treatment regimen comprising five weekly single IV bolus injections of BNT142 or control items was initiated. BNT142 was administered at doses of 0.1 or 1 μg (˜0.004 and 0.04 mg/kg) per mouse. […]

[13] = tested on: human pro-inflammatory cytokines in NSG/PBMC mice; assay: Human cytokine release in serum of NSG/PBMC mice; type: in vivo, mouse; settings: 100 μg reference protein; 6-hour time point
Description: An additional non-tumor-bearing (w/o tumor) group administered with 1 μg BNT142 was included. (A) Concentrations of human cytokines (IFN-γ, IL-6, IL-2, IL-10, TNF-α and IL-1β) in mouse serum as determined by multiplex ELISA at the 6- (n=8) and 72-hour (n=4) time points. Data was normalized to saline-administered animals of the respective time points. Horizontal lines indicate medians. Unpaired and paired samples were compared using the Mann-Whitney U test or Wilcoxon signed-rank test, respectively. […] Horizontal lines indicate means.
The human pro-inflammatory cytokines IFN-γ, IL-1β, IL-2, IL-6, IL-10 and TNF-α were measured in serum samples of OV-90 human xenograft tumor-bearing NSG/PBMC mice obtained after 6 and 72 h of the third BNT142 administration (see above). An additional group of tumor-free NSG/PBMC mice was treated with 1 μg BNT142. […] Data were normalized to the values obtained with the saline control group at the respective time points.

Compound: CCCCCCCCCCCCCCN(CCCCCCCCCCCCCC)C(=O)COCCOCCOCCOCCOCCOCCOCCOCCOCCOCCOCCOCCOCCOCCOCCOCCOCCOCCOCCOCCOCCOCCOCCOCCOCCOCCOCCOCCOCCOCCOCCOCCOCCOCCOCCOCCOCCOCCOCCOCCOCCOCCOCCOCCOCCOC [ALC-0159, 2-[(Polyethylene glycol)-2000]-N,N-ditetradecylacetamide]
- excretion in urine ([1]; IV administration of RNA-LNP): no detectable excretion
- percentage of dose excreted unchanged in feces ([1]; IV administration of RNA-LNP): ~50%
- half-life ([1]; read-out: initial plasma half-life (converted)): 1.72 h
- half-life ([1]; read-out: terminal elimination half-life in plasma (converted)): 72.7 h
- drop of plasma concentration ([1]; during 2 wk study): approximately 8,000 fold
- estimated percent of lipid dose distributed to the liver ([1]; single IV): ~20%
- metabolism [2]: metabolized relatively slowly by amide bond hydrolysis

Compound: CCCCCCC(CCCC)C(=O)OCCCCCCCCCN(CCCO)CCCCCCCCCOC(=O)C(CCCC)CCCCCC (centres unmarked) [ALC-0366, ((3-Hydroxypropyl)azanediyl)bis(nonane-9,1-diyl) bis(2-butyloctanoate)]
- remaining ALC-0366 [3]: > 94%
- remaining ALC-0366 [4]: > 89%
- remaining ALC-0366 [5]: > 88%

Compound: OKT3: human CD3-specific antibody used as positive control for T-cell activation [reference compound]
- cytokine release [6]: induced cytokine release in the presence as well as absence of target cells
- T-cell activation (positive control in proliferation assay) [7]: strong activation
- T-cell activation [8]: > 50%

Compound: reference protein: recombinant purified CD3×(CLDN6)2 tribody reference protein, sequence-identical to RiboMab02.1
- interaction with CLDN6 [9]: specific interaction
- other binding [10]: No other binding was observed
- interaction with CLDN9 [11]: weak off-target interaction
- start of tumor volume shrinkage ([12]; 100 μg reference protein IV once weekly x5): after the third treatment
- TIL per mm^2 tumor tissue (average) ([12]; 100 μg reference protein, 72 h after third injection): 1,542 per mm^2
- tumor reduction ([12]; treated groups in contrast to negative control groups): significant tumor reduction
- human cytokine elevation in serum [13]: transient but significant elevation of all six cytokines
